Reference: PubChem BioAssay (NCI)
“And” between values parts separate entries of the source, which are not always exact repeats. Identical values can stand only once.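 Results reflect a 48-hour exposure of cells in 96-well plates to compound at five concentrations. GI50 = concentration required for 50% inhibition of growth. TGI denotes the concentration required for complete inhibition of growth.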

What was measured:
Assay in all cases: NCI tumour cell line growth inhibition, 48 h
UACC-62 melanoma = test system: UACC-62 melanoma
NCI/ADR-RES ovarian = test system: NCI/ADR-RES ovarian
EKVX NSCLC = test system: EKVX NSCLC
DLD-1 colon = test system: DLD-1 colon
XF 498 CNS = test system: XF 498 CNS
SW-620 colon = test system: SW-620 colon
MDA-MB-231 breast = test system: MDA-MB-231 breast
SNB-19 CNS = test system: SNB-19 CNS
SF-268 CNS = test system: SF-268 CNS
MCF7 breast = test system: MCF7 breast
HT29 colon = test system: HT29 colon
DU-145 prostate = test system: DU-145 prostate
IGROV1 ovarian = test system: IGROV1 ovarian
HCC-2998 colon = test system: HCC-2998 colon
MALME-3M melanoma = test system: MALME-3M melanoma
UO-31 renal = test system: UO-31 renal
K-562 leukemia = test system: K-562 leukemia
T-47D breast = test system: T-47D breast
SK-MEL-2 melanoma = test system: SK-MEL-2 melanoma
RXF 393 renal = test system: RXF 393 renal
CCRF-CEM leukemia = test system: CCRF-CEM leukemia
A498 renal = test system: A498 renal
HL-60(TB) leukemia = test system: HL-60(TB) leukemia
U251 CNS = test system: U251 CNS
M19-MEL melanoma = test system: M19-MEL melanoma
NCI-H522 lung = test system: NCI-H522 lung
NCI-H226 lung = test system: NCI-H226 lung
SK-MEL-28 melanoma = test system: SK-MEL-28 melanoma
KM12 colon = test system: KM12 colon
CAKI-1 renal = test system: CAKI-1 renal
OVCAR-5 ovarian = test system: OVCAR-5 ovarian
HCT-116 colon = test system: HCT-116 colon
OVCAR-4 ovarian = test system: OVCAR-4 ovarian
COLO 205 colon = test system: COLO 205 colon
RPMI-8226 leukemia = test system: RPMI-8226 leukemia
P388/ADR leukemia = test system: P388/ADR leukemia
ACHN renal = test system: ACHN renal
UACC-257 melanoma = test system: UACC-257 melanoma
SR leukemia = test system: SR leukemia
SK-OV-3 ovarian = test system: SK-OV-3 ovarian
HOP-62 NSCLC = test system: HOP-62 NSCLC
HOP-92 NSCLC = test system: HOP-92 NSCLC
M14 melanoma = test system: M14 melanoma
SN12C renal = test system: SN12C renal
SF-295 CNS = test system: SF-295 CNS
LOX IMVI melanoma = test system: LOX IMVI melanoma
MOLT-4 leukemia = test system: MOLT-4 leukemia
HOP-18 NSCLC = test system: HOP-18 NSCLC
DMS 114 small cell lung = test system: DMS 114 small cell lung
HCT-15 colon = test system: HCT-15 colon
PC-3 prostate = test system: PC-3 prostate
MDA-N = test system: MDA-N
BT-549 breast = test system: BT-549 breast
TK-10 renal = test system: TK-10 renal
SF-539 CNS = test system: SF-539 CNS
DMS 273 small cell lung = test system: DMS 273 small cell lung
SN12K1 renal = test system: SN12K1 renal
SNB-75 CNS = test system: SNB-75 CNS
KM20L2 colon = test system: KM20L2 colon
MDA-MB-435 = test system: MDA-MB-435
786-0 renal = test system: 786-0 renal
SNB-78 CNS = test system: SNB-78 CNS
NCI-H23 lung = test system: NCI-H23 lung
A549 NSCLC = test system: A549 NSCLC
NCI-H460 lung = test system: NCI-H460 lung
SK-MEL-5 melanoma = test system: SK-MEL-5 melanoma
P388 leukemia = test system: P388 leukemia

Question: Which GI50 (UACC-62 melanoma) does the source give for `CCCCCCCCCCS(=O)CC(CO)NC(=O)/C=C/c1c(C)[nH]c(=O)[nH]c1=O` (stereo not given) here?
Answer: 9.8 µM

Question: What about the TGI (UACC-62 melanoma) of the same molecule?
Answer: 4.08 µM and 24.5 µM

Question: What about the GI50 (NCI/ADR-RES ovarian) of the same molecule?
Answer: 17.2 µM

Question: And the TGI (NCI/ADR-RES ovarian)?
Answer: 37.9 µM and 34.2 µM

Question: And the GI50 (EKVX NSCLC)?
Answer: 28.3 µM

Question: And the TGI (DLD-1 colon)?
Answer: 5.28 µM

Question: What about the TGI (XF 498 CNS) of the same molecule?
Answer: 0.229 µM

Question: And the GI50 (SW-620 colon)?
Answer: 15.7 µM

Question: And the TGI (MDA-MB-231 breast)?
Answer: 15.9 µM

Question: What about the TGI (SNB-19 CNS) of the same molecule?
Answer: 2.64 µM and 25.7 µM

Question: And the TGI (SF-268 CNS)?
Answer: 2.01 µM

Question: And the GI50 (MCF7 breast)?
Answer: 23.4 µM

Question: What about the GI50 (HT29 colon) of the same molecule?
Answer: 6.27 µM

Question: What about the TGI (HT29 colon) of the same molecule?
Answer: 22.7 µM and 19.9 µM

Question: What about the TGI (DU-145 prostate) of the same molecule?
Answer: > 100 µM

Question: What about the GI50 (IGROV1 ovarian) of the same molecule?
Answer: 2.77 µM

Question: And the TGI (IGROV1 ovarian)?
Answer: 13.5 µM and 8.81 µM

Question: And the GI50 (HCC-2998 colon)?
Answer: 3.26 µM

Question: And the TGI (HCC-2998 colon)?
Answer: 1.9 µM and 17.5 µM

Question: And the GI50 (MALME-3M melanoma)?
Answer: 23.9 µM

Question: And the GI50 (UO-31 renal)?
Answer: 17.2 µM

Question: What about the TGI (UO-31 renal) of the same molecule?
Answer: 8.68 µM and 33.8 µM

Question: What about the GI50 (K-562 leukemia) of the same molecule?
Answer: 26.4 µM

Question: And the TGI (T-47D breast)?
Answer: 39.6 µM

Question: What about the GI50 (SK-MEL-2 melanoma) of the same molecule?
Answer: 25.8 µM

Question: What about the GI50 (RXF 393 renal) of the same molecule?
Answer: 10 µM

Question: What about the GI50 (CCRF-CEM leukemia) of the same molecule?
Answer: 4.08 µM

Question: What about the TGI (CCRF-CEM leukemia) of the same molecule?
Answer: 2.41 µM and 13.2 µM

Question: And the GI50 (A498 renal)?
Answer: 23.4 µM

Question: And the TGI (A498 renal)?
Answer: 7.98 µM and 62.1 µM

Question: And the TGI (HL-60(TB) leukemia)?
Answer: 4.16 µM

Question: And the GI50 (U251 CNS)?
Answer: 17.4 µM

Question: What about the TGI (M19-MEL melanoma) of the same molecule?
Answer: 4.3 µM

Question: And the GI50 (NCI-H522 lung)?
Answer: 10.6 µM

Question: What about the TGI (NCI-H226 lung) of the same molecule?
Answer: 4.21 µM

Question: What about the GI50 (SK-MEL-28 melanoma) of the same molecule?
Answer: 43.9 µM

Question: And the TGI (KM12 colon)?
Answer: 3.27 µM

Question: And the TGI (CAKI-1 renal)?
Answer: 4.2 µM and 31.1 µM

Question: What about the GI50 (OVCAR-5 ovarian) of the same molecule?
Answer: 2.86 µM

Question: What about the TGI (OVCAR-5 ovarian) of the same molecule?
Answer: 11.6 µM and 10.2 µM

Question: What about the TGI (HCT-116 colon) of the same molecule?
Answer: 5.61 µM and 31.9 µM

Question: And the TGI (OVCAR-4 ovarian)?
Answer: 1.88 µM

Question: What about the GI50 (COLO 205 colon) of the same molecule?
Answer: 2.96 µM

Question: And the GI50 (RPMI-8226 leukemia)?
Answer: 10.6 µM

Question: And the TGI (P388/ADR leukemia)?
Answer: 24.5 µM

Question: And the TGI (ACHN renal)?
Answer: 28.5 µM

Question: What about the GI50 (UACC-257 melanoma) of the same molecule?
Answer: 20.4 µM

Question: And the TGI (UACC-257 melanoma)?
Answer: 9.58 µM and 43.7 µM

Question: What about the TGI (SR leukemia) of the same molecule?
Answer: > 100 µM

Question: What about the GI50 (SK-OV-3 ovarian) of the same molecule?
Answer: 11 µM

Question: And the TGI (SK-OV-3 ovarian)?
Answer: 12.7 µM and 32.1 µM

Question: And the GI50 (HOP-62 NSCLC)?
Answer: 4.8 µM

Question: What about the TGI (HOP-62 NSCLC) of the same molecule?
Answer: 6.49 µM and 18.4 µM

Question: And the GI50 (HOP-92 NSCLC)?
Answer: 10.5 µM

Question: And the TGI (M14 melanoma)?
Answer: 24.4 µM

Question: And the GI50 (SN12C renal)?
Answer: 10.3 µM

Question: And the GI50 (SF-295 CNS)?
Answer: 1.15 µM and 7.04 µM

Question: What about the TGI (SF-295 CNS) of the same molecule?
Answer: 8.88 µM and 22.8 µM

Question: And the GI50 (LOX IMVI melanoma)?
Answer: 13.5 µM

Question: What about the TGI (LOX IMVI melanoma) of the same molecule?
Answer: 10.2 µM and 27.1 µM

Question: What about the GI50 (MOLT-4 leukemia) of the same molecule?
Answer: 8.74 µM

Question: And the TGI (MOLT-4 leukemia)?
Answer: 4.68 µM and 45.5 µM

Question: What about the TGI (HOP-18 NSCLC) of the same molecule?
Answer: 16.2 µM

Question: What about the TGI (DMS 114 small cell lung) of the same molecule?
Answer: 1.42 µM

Question: And the GI50 (HCT-15 colon)?
Answer: 4.4 µM

Question: What about the TGI (HCT-15 colon) of the same molecule?
Answer: 14.8 µM and 21.5 µM

Question: What about the TGI (PC-3 prostate) of the same molecule?
Answer: 7.79 µM

Question: And the TGI (MDA-N)?
Answer: 57.5 µM

Question: And the TGI (BT-549 breast)?
Answer: 25.1 µM

Question: What about the TGI (TK-10 renal) of the same molecule?
Answer: 4.02 µM

Question: And the GI50 (SF-539 CNS)?
Answer: 14.9 µM

Question: And the TGI (DMS 273 small cell lung)?
Answer: 4.04 µM

Question: And the TGI (SN12K1 renal)?
Answer: 3.9 µM

Question: What about the TGI (SNB-75 CNS) of the same molecule?
Answer: 1.76 µM

Question: What about the TGI (KM20L2 colon) of the same molecule?
Answer: 6 µM

Question: What about the TGI (MDA-MB-435) of the same molecule?
Answer: 49.1 µM

Question: What about the TGI (786-0 renal) of the same molecule?
Answer: 27 µM

Question: What about the TGI (SNB-78 CNS) of the same molecule?
Answer: 5.65 µM

Question: And the GI50 (NCI-H23 lung)?
Answer: 29.5 µM

Question: What about the GI50 (A549 NSCLC) of the same molecule?
Answer: 14.2 µM

Question: And the TGI (A549 NSCLC)?
Answer: 35.3 µM and 31.8 µM

Question: And the TGI (NCI-H460 lung)?
Answer: 1.97 µM and 15.3 µM

Question: What about the GI50 (SK-MEL-5 melanoma) of the same molecule?
Answer: 18.2 µM

Question: What about the TGI (SK-MEL-5 melanoma) of the same molecule?
Answer: 4.52 µM and 40.4 µM

Question: What about the TGI (P388 leukemia) of the same molecule?
Answer: 1.62 µM
